Key:
[1] = tested on: TGF-β receptors in Mv1Lu cells; experiment: Binding of 125I-TGF-β2 to Mv1Lu cells in the presence of α2M*; assay type: cell-based, mink; details: 30 μM arachidonic acid, 200 μg/ml α2M*
Description: (§1) The levels of TGF ? β and ? 2M* also increase dramatically. α2M* is capable of inhibiting TGF- ? activity by forming complexes with TGF- ? and thus preventing it from binding to TGF ? β receptors in cells involved. Fatty acids may potentiate TGF ? β activity by blocking complex formation of ? 2M* and TGF ? β under these conditions. To test this possibility, we determined the effects of arachidonic acid on ^125I-TGF- ? 2 binding (in the presence and absence of α2M*) to Mv1Lu cells. ? 2M* is known to inhibit TGF- ? 2 more strongly than TGF ? β1 binding to T receptors in cells (13). Various concentrations of ^125I-TGF- ? 2 were preincubated with 200 μg/ml of ? 2M* in the presence or absence of 30 μM arachidonic acid for 30 min prior to the performance of binding assays in Mv1Lu cells. […] The residual ^125I-TGF- ? binding associated with the cells after ? 2M* inhibition was mainly due to non-specific binding of ^125I-TGF- ? 2. […] In the presence of 200 μg/ml of ? 2M*, the dose-response curve of TGF ? β2 shifted to the right. […] Addition of arachidonic acid at 0.5 and 1 μM reversed the inhibitory effect of. α2M* on TGF- ? 2-induced growth inhibition as measured by [methyl-^3H]-thymidine incorporation.
Binding of ^125I-TGF- ? […] After 2.5 hr at 0° C., the cells were washed with binding buffer, and the cell-associated radioactivity was determined. […]

[2] = tested on: Mv1Lu cells; experiment: [Methyl-3H]-thymidine incorporation assay, TGF-β2-induced growth inhibition; assay type: cell-based, mink
Description: as §1
[Methyl-^3H]-Thymidine Incorporation Assay—Mv1Lu cells were plated at a cell density of 7.5×10^4 cells/well in DMEM containing 0.1% fetal calf serum in 48-well cluster dishes. After 4 hr at 37° C. (to allow cell adherence), cells were treated with various concentrations of TGF- ? 2,2M* (0 or 200 μg/ml) and arachidonic acid ([…] or 1 μM). After 1h at 37° C., cells were pulsed with 1 μCi/ml [methyl-^3H]-thymidine for 2 hr. The [methyl-^3H]-th incorporation into cellular DNA was carried out in triplicate as described previously (23).

[3] = tested on: p3TP-Lux in transfected Mv1Lu cells; experiment: Luciferase assay, p3TP-Lux TGF-β-responsive promoter construct; assay type: cell-based, mink; details: for reversal of α2M* inhibition of TGF-β2-induced luciferase activity: 200 μg/ml α2M*
Experimental: One of the prominent biological activities of TGF- ? is transcriptional activation of plasminogen activator inhibitor-1 (PAI-1) and fibronectin (1-4). The effect of fatty acids on the inhibition by. α2M* of a TGF- ? -responsive promoter construct p3TP-Lux was determined in transfected Mv1Lu cells. The p3TP-Lux contains the PAI-1 promoter and 3 repeats of a phorbol-12-myristate-13-acetate (TPA)-responsive element (29).
Luciferase Assay—Mv1Lu cells which had been plated on 12-well clustered dishes at a cell density of approximately 0.8-1.0×10^5 cells/plate were transfected with 4-6 μg of p3TP-Lux using the calcium phosphate method (24). After 12 hr, the transfected cells were washed with phosphate buffered saline and allowed to grow in a medium containing 10% fetal calf serum for 12 hr. The medium was changed to DMEM with low serum concentration (0.2% fetal calf serum) and the cells were incubated for 4-6 hr. The cells were then treated for 20 hr with TGF-.β2 (0, 50 or 100 pM), α2M* (0 or 200 μg/ml) and arachidonic acid (0, 12.5 or 25 μM) in the same low-serum medium. The cells were harvested and assayed for luciferase activity using the Promega kit according to the manufacturer's protocol. The luciferase activity was assayed in triplicate cell cultures and measured as arbitrary units (A.U.).

[4] = Plasma clearance of 125I-TGF-β1 with and without α2M* and arachidonic acid; assay type: in vivo, mice; details: control experiments, no α2M*
Experimental: TGF ? β1-α2M* and TGF- ? 2- ? 2M* complexes are cleared from plasma by the ? liver (30). To test the possibility that fatty acids may be able to affect the plasma clearance of TGF ? β and α2M* complexes, ^125I-TGF ? β1 or ^125I-TGF- ? 2 were prei presence or absence of 10 μM arachidonic acid at room temperature for 30 min, and then injected into mice via tail vein according to published procedures (19). At several time intervals (10 sec, 1, 2, 3, 5, 10, 15, 20, 30 and 60 min) about 50 μl of blood was collected and counted by a γ-counter. […] The t 1+α2M* or ^125I-TGF- ? 2+α2M* were approximately 4 min. These twith published values of free ^125I-TGF- ? 1,2 and ^125I-TGF- ? 1,2-α2M* complexes, respe (19). In the presence of arachidonic acid, the t1/2s of ^125I-TGF ? β1+α2M* and ^125I-TGF α2M* were decreased to approximately 1-2 min; these are essentially identical to the t1/2s of free ^125I-TGF- ? 1 and ^125I-TGF ? β2 (FIGS. 7A and B). In control experiments, arachidonic acid did no affect the plasma clearance of free ^125I-TGF ? β1 and ^125I-TGF- ? 2.
Plasma clearance of ^125I-TGF ? β in the presence and absence of ? 2M*-^125I-TGF- ? 1 nM) or ^125I-TGF- ? 2 (1 nM) was pre-incubated with ? […] The radioactivity in the blood sample obtained at 10 s was taken as 100%.

CCCCC/C=C\C/C=C\C/C=C\C/C=C\CCCC(=O)O [arachidonic acid]
reversal of α2M* inhibition of 125I-TGF-β2 binding to Mv1Lu cells [1]: completely reversed | reversal of the inhibitory effect of α2M* on TGF-β2-induced growth inhibition ([2]; 0.5 μM arachidonic acid, 200 μg/ml α2M*): reversed | reversal of the inhibitory effect of α2M* on growth inhibition induced by 1 pM TGF-β2 ([2]; 1 μM arachidonic acid, 200 μg/ml α2M*): almost completely reversed | effect on growth inhibition induced by TGF-β2 in the absence of α2M* ([2]; absence of α2M*): did not affect growth inhibition | reversal of α2M* inhibition of TGF-β2-induced luciferase activity ([3]; 12.5 μM arachidonic acid): completely reversed | reversal of α2M* inhibition of TGF-β2-induced luciferase activity ([3]; 25 μM arachidonic acid): completely reversed | effect on luciferase activity in cells treated with and without TGF-β2 in the absence of α2M* ([3]; 12.5 and 25 μM, absence of α2M*): did not influence the luciferase activity | effect on plasma clearance of free 125I-TGF-β1 [4]: did no affect

— US20040229791A1, “Compositions and methods of modulating TGF-beta activity by fatty acids” (priority 2002, published 2004)
